Data set [1] concerns MMTV-PyMT tumors. Nature of the data set: Drug treatment in vivo of mice bearing MMTV-PyMT tumors. Also noted: species or system mouse. On the procedure:
(§1) For tumor generation, tumor organoids were transplanted into the 4th mammary fat pad of FVB female mice. Rimadyl (0.067 mg/ml, Zoetis) was administered to mice in the drinking water from 24 h before surgery and for 48 h after surgery. Mice were also treated with temgesic (0.1 mg/kg, Indivior Europe Limited), 1 hr before and 12 h after surgery. Mice were anesthetized with isoflurane (2%, v/v) and their eyes were covered with duratears (Alcon). About 100,000 single cells derived from KB1P organoids or 200,000 single cells derived from MMTV-PyMT organoids were injected in 30 μl of BME (Amsbio, Cat. No. 3533-005-02). Mice were weighed and monitored three times a week after transplantation of tumor organoids. Tumor volume was measured with calipers three times weekly. The researcher performing the measurement of tumor volume was blinded to the treatment group. For survival experiments, endpoint was reached when tumor reached 2000 mm3. For specific experiments, reference is made to the schematic representations of treatment timelines depicted in the figures.
Once tumors were established and reached a size of ˜7×7 mm, mice were randomized into treatment groups with the following drug dosages and timeline: • AC+T treatment: every 14 days, cyclophosphamide (144 mg/kg, administered via intraperitoneal injection), doxorubicin (5 mg/kg, administered via intravenous injection) and docetaxel (25 mg/kg, resuspended in acetonitrile containing 0.1% acetic acid, administered via intravenous injection). Doxorubicin hydrochloride (Adriamycin) and cyclophosphamide (C), when combined in a treatment, are herein referred to as “AC”. Taxanes, as broadly described and disclosed herein, are referred to as “T”. […]

Data set [2] concerns KB1P tumors. Nature of the data set: Drug treatment in vivo of mice bearing KB1P tumors. On the set-up: species or system mouse. The protocol: as §1
Once tumors were established and reached a size of ˜7×7 mm, mice were randomized into treatment groups with the following drug dosages and timeline: • AC+T treatment: every 14 days, cyclophosphamide (144 mg/kg, administered via intraperitoneal injection), doxorubicin (5 mg/kg, administered via intravenous injection) and docetaxel (25 mg/kg, resuspended in acetonitrile containing 0.1% acetic acid, administered via intravenous injection). Doxorubicin hydrochloride (Adriamycin) and cyclophosphamide (C), when combined in a treatment, are herein referred to as “AC”. Taxanes, as broadly described and disclosed herein, are referred to as “T”. In one example, said taxane is docetaxel. • AC treatment: every 14 days, cyclophosphamide (144 mg/kg, administered via intraperitoneal injection) and doxorubicin (5 mg/kg administered via intravenous injection). • Docetaxel treatment: every 14 days, docetaxel (25 mg/kg, re-suspended in acetonitrile containing 0.1% acetic acid and administered via intravenous injections). • Vehicle control for chemotherapy: every 14 days, the same volume of the vehicle as the corresponding chemotherapy was administered to mice. […]

Data set [3] deals with mouse splenic T cells. Nature of the data set: MTT assessment of mouse splenic T cell survival following chemotherapy treatment in vitro. The class given is cell-based. The settings on record: 10 nmol/L, 72 h. On the procedure: About 100,000 T cells were seeded per well in a 96-well plate and treated with
increasing doses of docetaxel, paclitaxel, or carboplatin for 72 h. Next, T cells were incubated with Thiazolyl Blue Tetrazolium Bromide (0.5 mg/ml, Sigma Aldrich, Cat. No. 298-93-1) for 3 hr in the dark at 37 degrees Celsius. Subsequently, T cells were incubated for 16 h in the dark in a lysis buffer (40% dimerhylofrmamide, 0.55 mol/L sodium dodecyl sulfate, 2% acetic acid, 8.4 mmol/L HCl in MilliQ water). Plates were read with a 565 nm wavelength.

Data set [4] concerns KB1P organoids. Nature of the data set: Co-culture of pre-treated splenic T cells with KB1P organoids (MTT, cleaved-caspase 3). Conditions: T cells that cannot mature nor produce a TCR response. The class given is cell-based, mouse.
Data set [5] relates to human healthy lung organoids. Nature of the data set: Healthy organoids killing assay with tumor-reactive T cells. Type of data set: cell-based. Conditions: tumor-reactive T cells pre-treated with docetaxel. The protocol: To express luciferase in the tumor organoids, we used pLenti CMV Puro LUC (w168-1; Plasmid #17477; Addgene). Tumor-reactive PBMC were thawed in pre-warmed T cell medium and incubated for 15 minutes with 25 U/ml Benzonase. After washing, cells were re-suspended at 2−3×10^6 cells/ml in T cell medium and cultured overnight at 37° C. The day after, PBMC were incubated with (or without) 10 nmol/L docetaxel for 48 hr. To determine the sensitivity of tumor and healthy organoids to T cell-mediated killing, flatbottom non-tissue culture treated plates were coated with 5 μg/ml αCD28 and kept at 4° C. overnight prior to co-culture. Tumor organoids were previously transduced with luciferase reporter gene. Organoids were isolated from Geltrex 48 hours prior to co-culture and stimulated with 200 ng/ml IFNγ for 24 hr prior to co-culture. The next day, part of the organoids was dissociated to single cells and counted using a hemocytometer. […] At the end of the 72 hours, tumor and healthy organoids viability in the different conditions was evaluated by microscopy, taking bright-field pictures at 5 and 10× magnification. Tumor cell viability in the different conditions was also measured by luciferase reporter assay using 3 μg/mL luciferin. Luminescence was measured with a Tecan reader (1,000 ms exposure).

[6] abbreviates: depletion of CD4 alone, CD8 alone or both.
Where [7] appears, read: docetaxel 25 mg/kg intravenous every 14 days vs vehicle.
[8] abbreviates: tumors isolated 24 h after the second docetaxel administration.

This is an account of results in US20250387481A1, “PRE-TREATED T CELLS FOR USE AS A MEDICAMENT” (STICHTING HET NEDERLANDS KANKER INSTITUUT-ANTONI VAN …, priority 2022, published 2025).

Consider `CC(=O)O[C@@]12CO[C@@H]1C[C@H](O)[C@@]1(C)C(=O)[C@H](O)C3=C(C)[C@@H](OC(=O)[C@H](O)[C@@H](NC(=O)OC(C)(C)C)c4ccccc4)C[C@@](O)([C@@H](OC(=O)c4ccccc4)[C@H]21)C3(C)C` [docetaxel], for which the “anti-tumor effects of docetaxel (survival) upon T cell depletion” value in data set [1] (setting [6]) and in data set [2] (setting [6]) was “abrogated the anti-tumor effects” each time. Moreover, the tumor outgrowth result in data set [1] (setting [7]) and in data set [2] (setting [7]) was “delayed tumor outgrowth” throughout. Further, the “accumulation of mitotic figures in tumors” value in data set [1] (setting [8]) and in data set [2] (setting [8]) was “did not observe an accumulation of mitotic figures” throughout. Also, in data set [2] (docetaxel vs vehicle), the “CD4 and CD8 T cell infiltration (immunohistochemistry)” value was “enhanced CD4 and CD8 T cell infiltration”. In addition, the “killing of T cells (MTT)” value in data set [3] is given as “did not induce significant killing of T cells”. Also, the “T cell-mediated killing by T cells from NOD-SCID IL2rg-/- mice” value in data set [4] is given as “triggered T cell-mediated killing”. For the same compound, in data set [5], the “killing of healthy organoids” value is given as “not against healthy organoids”.
